Assay results published in patent US7084178B2, “Antiamyloid phenylsulfonamides: N-cycloalkylcarboxamides derivatives” (Bristol-Myers Squibb Company, priority 2003, dated 2006).

Test system: Aβ formation in H4 cells stably transfected to overexpress the HPLAP-APP fusion protein
Test: Inhibition of β-amyloid peptide formation in human H4 cells
Type: cell-based
Conditions: H4 cells overexpressing HPLAP-APP, 18 hrs at 37° C.
Description: γ-Secretase inhibitors can also be evaluated using in vitro assays based on the inhibition of Aβ formation in cultured cells. Cultured human cell lines, such as HEK293 and H4 cells, which express APP and γ-secretase activity or transfected derivative cell lines that overexpress wild-type APP, mutant APP, or APP fusion proteins will secrete Aβ peptides into the culture media that can be quantified as previously outlined (Dovey, H., John, V. et al., J. Neurochem. 2001, 76, 173–181). The incubation of these cultured cells with γ-secretase inhibitors decreases the production of Aβ peptides. For instance, H4 cells stably transfected to overexpress the HPLAP-APP fusion protein described above were grown as above, detached, and adjusted to 2×10^5 cells/ml. 100 μl of the resulting suspension was then added to each well of a 96-well plate. After 4 hrs, the media was removed and replaced with 100 μl serum-free media containing various dilutions of the test compound. Plates were then incubated for 18 hrs at 37° C. and a 100 μl aliquot of the tissue culture supernatant was removed for determination of Aβ levels using time-resolved fluorescence of the homogenous sample as outlined above. Alternately, the other methods described above for Aβ determination could be used. The extent of Aβ inhibition was used to calculate the IC50 value for the test compound.
In Table 2, an inhibitory concentration (IC50) of less than or equal to 50 nM is represented by +++; between 50 nM and 500 nM by ++; between 500 nM and 50000 nM by +.

| IC50 | Compound |
| --- | --- |
| ≤ 50 nM | (1S,2R)-2-[(4- Chlorobenzenesulfonyl)-[4-( -hydroxy-1-methyl-ethyl)-benzyl]-amino]-cyclohexanecarboxylic acid amide [Example 6] |

Same assay, conditions: Homo sapiens; H4 cells overexpressing HPLAP-APP, 18 hrs at 37° C.

| IC50 | Compound |
| --- | --- |
| ≤ 50 nM | CCNC(=O)c1ccc(CN([C@H]2CCCCC[C@H]2C(N)=O)S(=O)(=O)c2ccc(Cl)cc2)cc1 (relative stereo) [Example 24, cis-2-[(4-Chlorobenzenesulfonyl)-(4-ethylcarbamoyl-benzyl)-amino]-cycloheptanecarboxylic acid amide] |
| ≤ 50 nM | COC(=O)c1ccc(CN([C@@H]2CCCC[C@@H]2C(N)=O)S(=O)(=O)c2ccc(Cl)cc2)cc1 (relative stereo) [Example 13, cis-4-[[(2-Carbamoyl-cyclohexyl)-(4-chlorobenzenesulfonyl)-amino]-methyl]-benzoic acid methyl ester] |
| ≤ 50 nM | COC(=O)c1ccc(CN([C@@H]2CCCC[C@@H]2C(N)=O)S(=O)(=O)c2ccc(Cl)cc2)cc1 [Example 1, 4-[[(1R,2S)-(2-Carbamoyl-cyclohexyl)-(4-chlorobenzenesulfonyl)-amino]-methyl]-benzoic acid methyl ester] |
| 50 to 500 nM | NC(=O)[C@@H]1CCCC[C@@H]1N(Cc1ccc(C(F)(F)F)cc1)S(=O)(=O)c1ccc(Cl)cc1 (relative stereo) [Example 10, cis-2-[(4-Chlorobenzenesulfonyl)-(4-trifluoromethyl-benzyl)-amino]-cyclohexanecarboxylic acid amide] |
| ≤ 50 nM | NC(=O)[C@H]1CCCC[C@H]1N(Cc1ccc(Cl)s1)S(=O)(=O)c1ccc(Cl)cc1 [Example 7, (1S,2R)-2-[(4-Chlorobenzenesulfonyl)-(5-chloro-thiophen-2-ylmethyl)-amino]-cyclohexanecarboxylic acid amide] |
| 500 to 50000 nM | N#Cc1ccc(CN([C@H]2CCCCC[C@H]2C(N)=O)S(=O)(=O)c2ccc(Cl)cc2)cc1 (relative stereo) [Example 21, cis-2-[(4-Chlorobenzenesulfonyl)-(4-cyano-benzyl)-amino]-cycloheptanecarboxylic acid amide] |
| 50 to 500 nM | NC(=O)[C@H]1CCCC[C@H]1N(Cc1ccc(OC(F)(F)F)c(Cl)c1)S(=O)(=O)c1ccc(Cl)cc1 [Example 4, (1S,2R)-2-[(4-Chlorobenzenesulfonyl)-(3-chloro-4-trifluoromethoxy-benzyl)-amino]-cyclohexanecarboxylic acid amide] |
| ≤ 50 nM | CCNC(=O)c1ccc(CN([C@@H]2CCCC[C@@H]2C(N)=O)S(=O)(=O)c2ccc(Cl)cc2)cc1 [Example 2, 4-[[(1R,2S)-(2-Carbamoyl-cyclohexyl)-(4-chlorobenzenesulfonyl)-amino]-methyl]-N-ethyl-benzamide] |
| ≤ 50 nM | NC(=O)[C@H]1CCCC[C@H]1N(Cc1ccc(SC(F)(F)F)cc1)S(=O)(=O)c1ccc(Cl)cc1 [Example 8, (1S,2R)-2-[(4-Chlorobenzenesulfonyl)-(4-trifluoromethylsulfanyl-benzyl)-amino]-cyclohexanecarboxylic acid amide] |
| 50 to 500 nM | NC(=O)[C@H]1CCCC[C@H]1N(Cc1ccc(F)c(Cl)c1)S(=O)(=O)c1ccc(Cl)cc1 [Example 5, (1S,2R)-2-[(4-Chlorobenzenesulfonyl)-(3-chloro-4fluoro-benzyl)-amino]-cyclohexanecarboxylic acid amide] |
| 50 to 500 nM | CC(C)(C)c1ccc(CN([C@@H]2CCCC[C@@H]2C(N)=O)S(=O)(=O)c2ccc(Cl)cc2)cc1 [Example 3, (1S,2R)-2-[(4-tert-Butyl-benzyl)-(4-chlorobenzenesulfonyl)-amino]-cyclohexanecarboxylic acid amide] |

Test system: γ-secretase
Test: Competitive in vitro binding assay with [3H]-Compound A and membranes from THP-1 cells
Conditions: displacement of [3H]-Compound A, THP-1 cell membranes, 23° C., 1.3 hr; read-out: Binding affinity (IC50 in nM)
Description: Competitive in vitro binding assays can be used to identify compounds that inhibit γ-secretase activity. For example, [^3H]-Compound A can be used for binding assays with membranes from THP-1 cells (Seiffert, D.; Bradley, J. et al., J. Biol. Chem. 2000, 275, 34086–34091). Compound A is (2R,3S) N1-[(3S)-hexahydro-1-(3-phenoxybenzyl)-2-oxo-1H-azepin-3-yl]-2-(2methylpropyl)-3-(propyl)-butanediamide, which is described in U.S. patent U.S. Pat. No. 6,331,408 (Dec. 18, 2001); PCT Publication WO 00/28331; PCT Publication WO 00/07995; and Seiffert, D., Bradley, J. et al., J. Biol. Chem. 2000, 275. 34086–34091.
To evaluate the compounds of this invention using this assay, THP-1 cells were grown in spinner cultures in RPMI 1640 containing L-glutamine and 10 μM β-mercaptoethanol to a density of 5×10^5 cells/ml. Cells were harvested by centrifugation and cell pellets were quick frozen in dry ice/ethanol and stored at −70° C. prior to use. The pellets of approximately 2×10^4 THP-1 cells were homogenized using a Brinkman Polytron at setting 6 for 10 sec. The homogenate was centrifuged at 48,000×g for 12 min, and the resulting pellet was washed by repeating the homogenization and centrifugation. The final cell pellet was resuspended in buffer to yield a protein concentration of approximately 0.5 mg/ml. Assays were initiated by the addition of 150 μl of membrane suspension to 150 μl of assay buffer containing 0.064 μCi of radioligand and various concentrations of unlabeled compounds. Binding assays were performed in duplicate in polypropylene 96-well plates in a final volume of 0.3 ml containing 50 mM Hepes, pH 7.0, and 5% dimethyl sulfoxide. Nonspecific binding was defined using incubations with 300 nM compound A (Seiffert, D., Bradley, J. et al., J. Biol. Chem. 2000, 275, 34086–34091). After incubating at 23° C. for 1.3 hr, bound ligand was separated from free radioligand by filtration over GFF glass fiber filters presoaked in 0.3% ethyleneimine polymer solution. Filters were washed three times with 0.3 ml of ice cold phosphate-buffered saline, pH 7.0, containing 0.1% Triton X-100. Filter-bound radioactivity was measured by scintillation counting. IC50 values were then determined and used to calculate Ki values using the Cheng-Prusoft correction for IC50 values.
The compounds of this invention were evaluated in the assay described above, as well as with other evaluation methods, and found to be inhibitors of γ-secretase. In the table, an inhibitory concentration (IC50) of less than or equal to 50 nM is represented by +++; between 50 nM and 500 nM by ++; between 500 nM and 10000 nM by +.

| IC50 | Compound |
| --- | --- |
| 50 to 500 nM | CCNC(=O)c1ccc(CN([C@H]2CCCC[C@@H]2C(N)=O)S(=O)(=O)c2ccc(Cl)cc2)cc1 [Example 29, 4-[[(1S,2S)-(2-Carbamoyl-cyclohexyl)-(4-chlorobenzenesulfonyl)-amino]-methyl]-N-ethyl benzamide] |
| ≤ 50 nM | COC(=O)c1ccc(CN([C@@H]2CCCC[C@@H]2C(N)=O)S(=O)(=O)c2ccc(Cl)cc2)cc1 [Example 1, 4-[[(1R,2S)-(2-Carbamoyl-cyclohexyl)-(4-chlorobenzenesulfonyl)-amino]-methyl]-benzoic acid methyl ester] |
| 50 to 500 nM | CCNC(=O)c1ccc(CN([C@@H]2CCC[C@@H]2C(N)=O)S(=O)(=O)c2ccc(Cl)cc2)cc1 [Example 31, 4-[[(1R,2S)-(2-Carbamoyl-cyclopentyl)-(4-chlorobenzenesulfonyl)-amino]-methyl]-N-ethyl-benzamide] |
| 500 to 10000 nM | CCNC(=O)c1ccc(CN([C@@H]2CCCC[C@@H]2C(N)=O)S(=O)(=O)c2ccc(Cl)cc2)cc1 [Example 28, 4-[[(1R,2S)-(2-Carbamoyl-cyclohexyl)-(4-chlorobenzenesulfonyl)-amino]-methyl]-N-ethyl benzamide] |
| 500 to 10000 nM | NC(=O)[C@@H]1CCCCC[C@@H]1N(Cc1ccc(-n2cccn2)cc1)S(=O)(=O)c1ccc(Cl)cc1 (relative stereo) [Example 23, cis-2-[(4-Chlorobenzenesulfonyl)-(4-pyrazol-1-yl-benzyl)-amino]-cycloheptanecarboxylic acid amide] |
| 50 to 500 nM | CCNC(=O)c1ccc(CN([C@@H]2CCCC[C@H]2C(N)=O)S(=O)(=O)c2ccc(Cl)cc2)cc1 [Example 30, 4-[[(1R,2R)-(2-Carbamoyl-cyclohexyl)-(4-chlorobenzenesulfonyl)-amino]-methyl]-N-ethyl benzamide] |
| ≤ 50 nM | CCNC(=O)c1ccc(CN([C@@H]2CCCC[C@@H]2C(N)=O)S(=O)(=O)c2ccc(Cl)cc2)cc1 [Example 2, 4-[[(1R,2S)-(2-Carbamoyl-cyclohexyl)-(4-chlorobenzenesulfonyl)-amino]-methyl]-N-ethyl-benzamide] |
| 500 to 10000 nM | CCNC(=O)c1ccc(CN([C@@H]2CCC[C@H]2C(N)=O)S(=O)(=O)c2ccc(Cl)cc2)cc1 [Example 32, 4-[[(1R,2R)-(2-Carbamoyl-cyclopentyl)-(4-chlorobenzenesulfonyl)-amino]-methyl]-N-ethyl-benzamide] |
| 50 to 500 nM | COC(=O)c1ccc(CN([C@@H]2CCCCC[C@@H]2C(N)=O)S(=O)(=O)c2ccc(Cl)cc2)cc1 (relative stereo) [Example 20, cis-4-[[(2-Carbamoyl-cycloheptyl)-(4-chlorobenzenesulfonyl)-amino]-methyl]-benzoic acid methyl ester] |
